According to US4696920A, “Certain 2-substituted 1,3-propylidenediphosphonate derivatives, pharmaceutical compositions containing them and their use as antihypertensive agents” (priority 1984, dated 1987):
Entries after “also recorded” stand apart in the source; their conditions may differ.

Tests used:
[1] = tested on: slow inward current of the action potential; details: classical calcium antagonists; cited from earlier work
[2] = tested on: mean blood pressure in rat; test: Acute intravenous hypotensive activity in anesthetized rats; format: in vivo, rat (male Wistar)
Experimental: Male Wistar rats were anesthetized with Pentobarbital (Nembutal, 60 mg/kg i.p.) and heparinized (5 mg/kg i.p.). After tracheotomy the right carotid was cannulated (catheter PE 50); blood pressure was measured with a pressure transducer (Statham P 23 db) and recorded on a polygraph (Beckman).
Animals received 0.5 and 1.5 mg/kg of the test compounds. Less than 100 μl of test compounds dissolved in 0.9% saline were injected in the jugular vein. Highly water insoluble compounds were suspended in 2% Tween-80. Injection of the vehicle alone had no detectable hypotensive effect.
Results presented are expressed as percent decrease in initial mean blood pressure (Mean±SEM).

[3] = tested on: calcium channel binding site for [^3 H]-Nitrendipine (rat brain membranes); test: [^3 H]-Nitrendipine binding to rat brain membranes; parameters: species or system rat (male Wistar); details: Table 1a; for Specifically bound [^3 H]-Nitrendipine % of control value: compound concentration 1.0 μM; for Bound ^3 H at 1.0 μM / Bound ^3 H at 0.1 μM: ratio of [^3 H]-Nitrendipine bound at 1.0 and 0.1 μM compound
How it was run: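 Cerebral cortex membranes from male Wistar rats (400 μg protein/tube) were incubated with [3H]-nitrendipine and compounds in 50 mM Tris-HCl pH 7.4/150 mM NaCl/1 mM CaCl2 under subdued light, ethanol ≤0.1%. Bound radioligand was collected by GF/B filtration and counted; data are percent specific binding versus control, with compounds judged at 1.0 μM final.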

[4] = tested on: rat trachea contraction induced by KCl depolarization; test: KCl-induced rat trachea contraction; parameters: species or system rat (male SHR, Okamoto-Aoki); details: for activity at 1 µM: Rattus norvegicus, 40 min, read-out: Contraction (% max.); for activity on KCl-induced trachea contraction (in words): final concentration 1.0 μM
How it was run: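 Spiral trachea strips from male SHR rats were held in Krebs-Ringer (pH 7.4, 95/5 O2/CO2, 37±1° C) under 1.5–2 g tension, and contraction was measured isometrically. After a 65 mM KCl plateau, drugs (1.0 μM final) were added. Residual contraction at 40 min was expressed as % of the initial KCl response.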

[5] = tested on: isolated rat atrium (atrium rate); test: Chronotropic activity in isolated rat atrium; parameters: species or system rat (male SHR, Okamoto-Aoki); details: 5.0 × 10^-6 M, mean ± SEM, read-out: Decrease in atrium rate (% pretest)
Experimental: Spontaneously hypertensive male rats (SHR) (Okamoto-Aoki strain) were anesthetized with Pentobarbital (Nembutal Abbott, 60 mg/kg, i.p.). The hearts were quickly excised and both atria were dissected free from adjacent cardiac tissues. The atria were immediatly placed in a 50 ml Krebs-Ringer bath with the following composition (mM): NaCl, (120.0); KCl, (5.63); CaCl2, (2.0); MgCl2, (2.10); NaHCO3, (25.0); Glucose, (9.7) (pH 7.4). The solution was continuously bubbled with a O2 /CO2 mixture (95/5) and maintained at 37±1° C. The atrium was fixed to an optical displacement transducer (IITC, USA) under a resting tension of 1 g in order to measure atrial rate. The preparation was allowed to equilibrate for 40 min then cumulative dose-response curves were determined for each test compound (0.5-5 μMole/l). Maximum effect was normally obtained within 30-40 min. for each concentration.
Stock solutions of the 1,3-diphosphonates were generally prepared in 0.9% saline and water insoluble compounds were prepared in 50% ethanol. […] When tested at the concentration of 5.0×10^-6 M a decrease in atrium rate of more than 5% was considered as significant.
All data are presented as % decrease of initial atrium rate (mean values±SEM). A potent negative chronotropic effect was found with all compounds tested (table 3).

[6] = tested on: drug receptor sites associated with calcium channels; details: known calcium antagonists; cited from earlier work
[7] = Rattus norvegicus, iv, read-out: Decrease in mean blood pressure (% pretest)

SMILES	inhibition of slow inward current (in words) [1]	inhibition in vivo at 0.5 mg/kg [2, 7] [%]	inhibition in vivo at 1.5 mg/kg [2, 7] [%]	modulation of [^3 H]-Nitrendipine binding (in words) [3]	Specifically bound [^3 H]-Nitrendipine % of control value [3]	Bound ^3 H at 1.0 μM / Bound ^3 H at 0.1 μM [3]	activity at 1 µM [4] [%]	activity on KCl-induced trachea contraction (in words) [4]	inhibition at 5 µM [5] [%]	hypotensive activity (in words) ([2]; acute i.v., Table 4)	inhibition in vivo at 1 mg/kg ([2]; Rattus norvegicus, iv, 1.0 mg/kg, known hypotensive drugs, mean ± SEM, read-out: Decrease in mean blood pressure (% pretest)) [%]	effect on [^3 H]-Nitrendipine binding (in words) [6]
COC(=O)C1=C(C)NC(C)=C(C(=O)OC)C1c1ccccc1[N+](=O)[O-] [Nifedipine]	inhibit with very high specificity the slow inward current of the action potential											
CC(C)OP(=O)(CC(Cc1ccccc1)CP(=O)(OC(C)C)OC(C)C)OC(C)C [Compound 55, Tetraisopropyl 2-benzyl-1,3-propylidenephosphonate]		28.2 ± 0.7	31.1 ± 6.4	activators	156 % of control value	1.292	73 ± 1	potent pharmacological activity	17.5 ± 4.6			
CCCCOP(=O)(CC(CCc1ccccc1)CP(=O)(OCCCC)OCCCC)OCCCC [Compound 74]		50.8 ± 2.7			17 % of control value	0.380	35 ± 1.2	potent pharmacological activity	8.3 ± 4.5	hypotensive activity superior to that of classical hypotensive drugs and of the calcium antagonists used as references		
COc1ccc([C@@H]2Sc3ccccc3N(CCN(C)C)C(=O)[C@@H]2OC(C)=O)cc1 [Diltiazem]	inhibit with very high specificity the slow inward current of the action potential										47.9	stimulators; also recorded: enhances [^3 H]Nitrendipine binding
CCCCOP(=O)(CC(CCCc1ccccc1)CP(=O)(OCCCC)OCCCC)OCCCC [Compound 75, Tetrabutyl 2-(3-phenylpropyl)-1,3-propylidenediphosphonate]		22.8 ± 1.6		strong inhibitors	22 % of control value	0.354	70 ± 3	potent pharmacological activity	14.8 ± 4.8			
